Measurements: BindingDB's records for doi:10.1016/s0960-894x(02)00084-7 (The University of Tokyo, 2002)

Legend:
[1] = Inhibitory activity (RA2) against Prostaglandin G/H synthase 2 was calculated relative to aspirin
[2] = Inhibitory activity (RA1) against Prostaglandin G/H synthase 1 was calculated relative to aspirin

SMILES	relative activity vs aspirin [1]	relative activity vs aspirin [2]
Cc1cc(C)c(C)c(N2C(=O)c3ccccc3C2=O)c1C [2-(2,3,5,6-Tetramethyl-phenyl)-isoindole-1,3-dione]	0.67	0.2
Cc1cc(C)c(C)c(N2C(=O)c3ccccc3C2=O)c1 [2-(2,3,5-Trimethyl-phenyl)-isoindole-1,3-dione]	1.18	0.33
O=C1c2ccccc2C(=O)N1c1c[nH]c(=O)[nH]c1=O [2-(2,4-Dioxo-1,2,3,4-tetrahydro-pyrimidin-5-yl)-isoindole-1,3-dione]	3.81	0.44
O=C1CCN(N2C(=O)c3ccccc3C2=O)C(=O)N1 [2-(2,4-Dioxo-tetrahydro-pyrimidin-1-yl)-isoindole-1,3-dione]	0.9	0.6
O=C1NCCCC1N1C(=O)c2ccccc2C1=O (centres undefined) [2-(2-Oxo-piperidin-3-yl)-isoindole-1,3-dione]	1.21	0.85
Cc1cc(C)cc(-n2c(O)cc3ccccc3c2=O)c1 [2-(3,5-Dimethyl-phenyl)-4H-isoquinoline-1,3-dione]	38.5	95.2
Cc1cc(C)cc(N2C(=O)c3ccccc3C2=O)c1 [2-(3,5-Dimethyl-phenyl)-isoindole-1,3-dione]	13.2	7.4
COc1cc(OC)nc(-n2c(O)cc3ccccc3c2=O)n1 [2-(4,6-Dimethoxy-pyrimidin-2-yl)-4H-isoquinoline-1,3-dione]	3.57	10.2
Cc1cc(C)nc(-n2c(O)cc3ccccc3c2=O)c1 [2-(4,6-Dimethyl-pyridin-2-yl)-4H-isoquinoline-1,3-dione]	6.67	12.5
O=C1c2ccccc2C(=O)N1CCn1ccc(=O)[nH]c1=O [2-[2-(2,4-Dioxo-3,4-dihydro-2H-pyrimidin-1-yl)-ethyl]-isoindole-1,3-dione]	0.65	1.23

Other lines, results leading:

relative activity vs aspirin [1]	relative activity vs aspirin [2]	SMILES
0.5	0.37	O=C1CCC(N2C(=O)c3ccccc3C2=O)C(=O)N1 (racemic) [(+/-)-thalidomide]
8.33	3.85	Cc1cc(C)nc(-n2c(O)cc3ccccc3c2=O)n1 [2-(4,6-Dimethyl-pyrimidin-2-yl)-4H-isoquinoline-1,3-dione]
10	21.7	COc1cc(C)nc(-n2c(O)cc3ccccc3c2=O)n1 [2-(4-Methoxy-6-methyl-pyrimidin-2-yl)-4H-isoquinoline-1,3-dione]
0.1	0.4	C[C@@]1(N2C(=O)c3cccc([N+](=O)[O-])c3C2=O)CCC(=O)NC1=O [2-((R)-3-Methyl-2,6-dioxo-piperidin-3-yl)-4-nitro-isoindole-1,3-dione]
1.51	0.54	C[C@@]1(N2C(=O)c3ccc([N+](=O)[O-])cc3C2=O)CCC(=O)NC1=O [2-((R)-3-Methyl-2,6-dioxo-piperidin-3-yl)-5-nitro-isoindole-1,3-dione]
0.73	0.29	C[C@@]1(N2C(=O)c3ccccc3C2=O)CCC(=O)NC1=O [2-((R)-3-Methyl-2,6-dioxo-piperidin-3-yl)-isoindole-1,3-dione]
–	0.17	C[C@@]1(N2C(=O)c3cccc(N)c3C2=O)CCC(=O)NC1=O [4-Amino-2-((R)-3-methyl-2,6-dioxo-piperidin-3-yl)-isoindole-1,3-dione]
–	0.12	C[C@@]1(N2C(=O)c3ccc(N)cc3C2=O)CCC(=O)NC1=O [5-Amino-2-((R)-3-methyl-2,6-dioxo-piperidin-3-yl)-isoindole-1,3-dione]
